PMC2365101, “Anti-Inflammatory Activity of (Polyphenolic)-Sulfonates and Their Sodium Salts in Rodents” (Metal-Based Drugs, 1998)

Molecular target: T1, TNFα high affinity receptors on L929 fibroblasts (Mus musculus, UniProt P25118)
T1 construct: host or cells: L929 mouse fibroblasts
T1 sequence (P25118 30-454): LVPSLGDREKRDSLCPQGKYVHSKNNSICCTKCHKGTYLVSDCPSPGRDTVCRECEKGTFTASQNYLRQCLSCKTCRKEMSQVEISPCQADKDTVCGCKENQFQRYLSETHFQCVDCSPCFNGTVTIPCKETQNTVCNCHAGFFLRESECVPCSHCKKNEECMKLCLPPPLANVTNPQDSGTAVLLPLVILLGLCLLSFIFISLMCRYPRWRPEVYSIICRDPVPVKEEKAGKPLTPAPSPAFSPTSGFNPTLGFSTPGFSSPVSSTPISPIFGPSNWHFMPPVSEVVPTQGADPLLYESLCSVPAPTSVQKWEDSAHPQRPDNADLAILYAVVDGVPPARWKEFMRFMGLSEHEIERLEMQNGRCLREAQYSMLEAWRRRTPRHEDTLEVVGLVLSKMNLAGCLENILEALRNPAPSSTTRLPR
Test: 125I-TNFα binding to high affinity receptors on L929 fibroblasts
Settings: 90 min, N=6
Description: Few reports in the literature indicate interaction at these receptor sites other than by peptides or antibodies. […] Blocking these receptors is desirable because the entire inflammation cascade of events is triggered by the early release of TNFa and IL-1. […] Radioisotopes were obtained from New England Nuclear [Dupont, Boston, MA] and substrates and co- factors were obtained from Sigma Chemical Co. [St. Louis, MO]. […] Cell lines were obtained from American Type Culture Collection [Rockville, MD]. In Vivo Tests Anti-inflammatory screen in mice: Male CF male mice weighing 28-32g obtained from Jackson Lab. [Bar Harbor, […]] were used to screen agents at 8 or 16 mg/kg intraperitoneal [I.P.] x 2 administered 3 hr and 30 min prior to administering the irritant, according to Winter's protocol. Evaluation of the induced edema was made by injecting 2% carrageenan in 0.9% saline into the plantar region of the foot. The opposite foot injected with 0.9% isotonic saline was used as a base line. […] Salmonella abortus equi [Lot # 69F4003] […] Drugs from 2 to 16 mg/kg, I.P. were administered 2 hr prior and 2 hr post-injection of the LPS and then subsequently for every 24 hr for the length ofthe animals' lives. Deaths were recorded every 12 hr and continued for 96 hr. […] In vitro TNFa andIL-1 Measurements and Cellular Regulation IC-21 mouse macrophages were maintained in RPMI-1640 + 10% FCS + P/S. After the cells had grown to confluency, E. coli LPS at 10 Ixg/ml was added to the medium. Agents were incubated at 12.5 to 100 µM final concentration for 18 hr. The medium (100 btl) was collected for TNFCt determinations. Interleukin-1 [IL-1] release was determined using P388D1 cells which were maintained in RPMI-1640 + 10% FCS + P/S. The L929 bioassay was used to quantitate the TNF and the IL-1 levels. The L929 mouse fibroblasts were grown in DMEM + 10% FCS + P/S to confluency in 96 well plates and incubated with 100 tl ofmedium from […] or P388D cells after 18 hr. The cells were stained with 0.2% crystal violet in 20% MeOH and read at 580 nm using a Molecular Devices scanner (SOFT-max program). High Affinity Binding to Receptors on L929-106 Cells Two laCi of 125I-TNFct (human recombinant, 30 mCi/tg New England Nuclear) or 125I-IL-1 (70-120[.t Ci/lxg,New England Nuclear) was added to confluency L929 cells for 90 min or 5 hr, […] The cells were washed repeatedly with isotonic saline, pH.7.2 and aliquots counted. Prostaglandin cylcooxygenase activity Mouse J774AI macrophages maintained in Dulbecco's modified Eagle's medium + 15% FCS + P/S. Cells (5 x 106) were incubated with agents (5 to 100 ].tM final concentration) and 3H-arachidonic acid (100 Ci/mol) for 60 min at 37C in a CO2 incubator. The reaction was terminated with 2N HCI, the mixture extracted 2 X with ether, and the organic layer evaporated.

| SMILES | TNFα binding, Percent of Control (5 μM) | TNFα binding, Percent of Control (12.5 μM) | TNFα binding, Percent of Control (25 μM) | TNFα binding, Percent of Control (50 μM) |
| --- | --- | --- | --- | --- |
| COc1c2cc(S(=O)(=O)[O-])cc1Cc1cc(S(=O)(=O)[O-])cc(c1OC)Cc1cc(S(=O)(=O)[O-])cc(c1OC)Cc1cc(S(=O)(=O)[O-])cc(c1OC)Cc1cc(S(=O)(=O)[O-])cc(c1OC)Cc1cc(S(=O)(=O)[O-])cc(c1OC)C2.[Na+].[Na+].[Na+].[Na+].[Na+].[Na+] [Compound 6] | 61 + 5% of Control | 39 + 4% of Control | 24 + 3% of Control | 36 + 5% of Control |
| CC(=O)Oc1c2cc(S(=O)(=O)[O-])cc1Cc1cc(S(=O)(=O)[O-])cc(c1OC(C)=O)Cc1cc(S(=O)(=O)[O-])cc(c1OC(C)=O)Cc1cc(S(=O)(=O)[O-])cc(c1OC(C)=O)Cc1cc(S(=O)(=O)[O-])cc(c1OC(C)=O)Cc1cc(S(=O)(=O)[O-])cc(c1OC(C)=O)Cc1cc(S(=O)(=O)[O-])cc(c1OC(C)=O)Cc1cc(S(=O)(=O)[O-])cc(c1OC(C)=O)C2.[Na+].[Na+].[Na+].[Na+].[Na+].[Na+].[Na+].[Na+] [Compound 8] | 59 + 6% of Control |  | 23 + 4% of Control | 37 + 4% of Control |
